Experimental data from the supplement of paper PMC8149375.

Experiments:
Settings in all cases: treatment: drug + dasatinib (fixed dose, not stated); 5 days
769-P [1] = assay: GI50 of drug in presence of dasatinib; higher = less potent
Experimental: (§1)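 Primary HTS combination arm: 8 RCC cell lines treated with 8 doses (up to 10 uM) of each library drug plus a fixed dose of dasatinib (dose not stated) for 5 days; viability read by CellTiter-Glo and normalised to DMSO. GI50 was fitted with XLfit, AUC is the area under the dose-response curve, and minimum viability is the lowest fraction of DMSO viability across doses.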

786-O [2] = assay: as above
Experimental: as §1

A498 [3] = assay: as above
Experimental: as §1

ACHN [4] = assay: as above
Experimental: as §1

CAKI-1 [5] = assay: as above
Experimental: as §1

SN12C [6] = assay: as above
Experimental: as §1

TK-10 [7] = assay: as above
Experimental: as §1

UO-31 [8] = assay: as above
Experimental: as §1

769-P [9] = assay: minimum viability across doses, drug + dasatinib, relative to DMSO (fraction); higher = less growth inhibition
Experimental: as §1

786-O [10] = assay: as above
Experimental: as §1

A498 [11] = assay: as above
Experimental: as §1

ACHN [12] = assay: as above
Experimental: as §1

CAKI-1 [13] = assay: as above
Experimental: as §1

SN12C [14] = assay: as above
Experimental: as §1

TK-10 [15] = assay: as above
Experimental: as §1

UO-31 [16] = assay: as above
Experimental: as §1

769-P [17] = assay: AUC of dose-response viability curve, drug + dasatinib, normalised to DMSO (arbitrary (AUC of normalised viability)); higher = less growth inhibition
Experimental: as §1

786-O [18] = assay: as above
Experimental: as §1

A498 [19] = assay: as above
Experimental: as §1

ACHN [20] = assay: as above
Experimental: as §1

CAKI-1 [21] = assay: as above
Experimental: as §1

SN12C [22] = assay: as above
Experimental: as §1

TK-10 [23] = assay: as above
Experimental: as §1

UO-31 [24] = assay: as above
Experimental: as §1

SMILES	GI50 of drug (769-P [1])	GI50 of drug (786-O [2])	GI50 of drug (A498 [3])	GI50 of drug (ACHN [4])	GI50 of drug (CAKI-1 [5])	GI50 of drug (SN12C [6])	GI50 of drug (TK-10 [7])	GI50 of drug (UO-31 [8])	minimum viability across doses (769-P [9])	minimum viability across doses (786-O [10])	minimum viability across doses (A498 [11])	minimum viability across doses (ACHN [12])	minimum viability across doses (CAKI-1 [13])	minimum viability across doses (SN12C [14])	minimum viability across doses (TK-10 [15])	minimum viability across doses (UO-31 [16])	AUC of dose-response viability curve (769-P [17])	AUC of dose-response viability curve (786-O [18])	AUC of dose-response viability curve (A498 [19])	AUC of dose-response viability curve (ACHN [20])	AUC of dose-response viability curve (CAKI-1 [21])	AUC of dose-response viability curve (SN12C [22])	AUC of dose-response viability curve (TK-10 [23])	AUC of dose-response viability curve (UO-31 [24])
C=CC(=O)Nc1ccc2ncnc(Nc3ccc(OCc4cccc(F)c4)c(Cl)c3)c2c1.Cc1ccc(S(=O)(=O)O)cc1 [AST-1306] + Cc1nc(Nc2ncc(C(=O)Nc3c(C)cccc3Cl)s2)cc(N2CCN(CCO)CC2)n1 [dasatinib]	321 nM	1110 nM	9990 nM	84.7 nM	1680 nM	5350 nM	406 nM	3170 nM	0.0288	0.0714	0.495	0.138	0.00665	0.0534	0.0976	0.06	1.82	1.99	3.44	1.62	2.04	2.22	2.01	3.51
CNC(=O)c1ccc(C)c(-n2c(C)cc(OCc3ccc(F)cc3F)c(Br)c2=O)c1 + Cc1nc(Nc2ncc(C(=O)Nc3c(C)cccc3Cl)s2)cc(N2CCN(CCO)CC2)n1 [dasatinib]	> 10000 nM	< 3 nM	> 10000 nM	90.6 nM	> 10000 nM	> 10000 nM	> 10000 nM	> 10000 nM	0.558	0.457	0.937	0.346	0.561	0.64	0.541	1.15	2.22	1.89	3.58	1.68	2.3	2.42	2.23	4.38
CCN(CC)CCCCNc1ncc2cc(-c3cc(OC)cc(OC)c3)c(NC(=O)NC(C)(C)C)nc2n1 + Cc1nc(Nc2ncc(C(=O)Nc3c(C)cccc3Cl)s2)cc(N2CCN(CCO)CC2)n1 [dasatinib]	1820 nM	1210 nM	3570 nM	19.8 nM	80.1 nM	366 nM	1390 nM	696 nM	0.207	0.00578	0.139	0.042	0.0229	0.0905	0.258	0.0119	2.13	2.02	2.67	1.28	1.31	1.9	2.18	2.28
CCN(CC)CCNC(=O)c1c(C)[nH]c(/C=C2\C(=O)Nc3ccc(F)cc32)c1C.O=C(O)C[C@H](O)C(=O)O [Sunitinib Malate (Sutent)] + Cc1nc(Nc2ncc(C(=O)Nc3c(C)cccc3Cl)s2)cc(N2CCN(CCO)CC2)n1 [dasatinib]	3140 nM	2520 nM	2020 nM	281 nM	496 nM	1530 nM	2860 nM	1020 nM	0.0812	0.0195	0.167	0.0769	0.00649	0.0218	0.221	0.0138	2.26	2.49	2.52	1.58	1.81	1.88	2.52	2.59
C[C@@H](Oc1cc(-c2cnn(C3CCNCC3)c2)cnc1N)c1c(Cl)ccc(F)c1Cl + Cc1nc(Nc2ncc(C(=O)Nc3c(C)cccc3Cl)s2)cc(N2CCN(CCO)CC2)n1 [dasatinib]	2260 nM	798 nM	3260 nM	475 nM	837 nM	748 nM	3550 nM	539 nM	0.0606	0.00845	0.284	0.0735	0.0151	0.175	0.149	0.0115	2.43	2.22	2.68	1.81	1.91	1.98	2.65	2.11
Cc1ccc(S(=O)(=O)Nc2nc3ccccc3nc2Nc2ccc3nsnc3c2)cc1 [XL147] + Cc1nc(Nc2ncc(C(=O)Nc3c(C)cccc3Cl)s2)cc(N2CCN(CCO)CC2)n1 [dasatinib]	> 10000 nM	> 10000 nM	> 10000 nM	> 10000 nM	> 10000 nM	> 10000 nM	> 10000 nM	> 10000 nM	0.634	0.642	0.924	0.551	0.764	0.651	0.743	0.909	2.42	2.67	3.43	2.12	2.82	2.42	2.87	3.44
O=C(Nc1cc(C(F)(F)F)cc(C(F)(F)F)c1)c1cc(Cl)ccc1O [IMD 0354] + Cc1nc(Nc2ncc(C(=O)Nc3c(C)cccc3Cl)s2)cc(N2CCN(CCO)CC2)n1 [dasatinib]	557 nM	373 nM	1700 nM	220 nM	481 nM	1340 nM	759 nM	2030 nM	0.00617	0.00625	0.0122	0.00153	0.0138	0.00339	0.07	0.0139	1.9	1.62	2.92	1.29	1.85	1.97	2.03	4.26
